Data reported in ChEMBL document CHEMBL1143360, “Synthesis and biological evaluation of curcuminoid pyrazoles as new therapeutic agents in inflammatory bowel disease: effect on matrix metalloproteinases” (Bioorg Med Chem, 2009).
Activity calls are given as the source filed them. The calls are words filed in the database; no cut-off is given here.

Experiments:
[1] = biological target: T1, Matrix metalloproteinase-9 (Homo sapiens, UniProt P14780); assay: Reduction of MMP9 activity in TNF-alpha/IL1-beta-stimulated human Caco-2 cells at 50 uM treated 1 hr before stimulation by zymography; type: cell-based
T1 sequence (P14780 whole entry): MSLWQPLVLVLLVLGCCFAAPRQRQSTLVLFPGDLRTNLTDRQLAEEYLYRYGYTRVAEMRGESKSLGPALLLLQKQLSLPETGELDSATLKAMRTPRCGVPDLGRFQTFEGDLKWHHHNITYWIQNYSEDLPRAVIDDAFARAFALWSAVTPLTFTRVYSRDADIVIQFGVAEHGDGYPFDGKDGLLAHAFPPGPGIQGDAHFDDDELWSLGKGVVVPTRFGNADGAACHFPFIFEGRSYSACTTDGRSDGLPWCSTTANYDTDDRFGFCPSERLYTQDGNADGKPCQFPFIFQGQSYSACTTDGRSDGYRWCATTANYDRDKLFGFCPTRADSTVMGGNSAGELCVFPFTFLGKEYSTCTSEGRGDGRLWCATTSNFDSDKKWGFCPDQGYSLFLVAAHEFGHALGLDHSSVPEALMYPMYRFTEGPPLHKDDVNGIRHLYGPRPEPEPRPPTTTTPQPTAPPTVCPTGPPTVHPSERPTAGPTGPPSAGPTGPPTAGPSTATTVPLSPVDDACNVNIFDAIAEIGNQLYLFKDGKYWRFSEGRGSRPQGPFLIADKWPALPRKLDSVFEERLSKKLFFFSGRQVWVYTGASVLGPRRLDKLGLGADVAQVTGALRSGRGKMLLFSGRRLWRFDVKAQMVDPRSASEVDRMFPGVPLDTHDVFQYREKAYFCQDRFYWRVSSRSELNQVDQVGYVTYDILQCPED

[2] = biological target: T1, Matrix metalloproteinase-9; assay: Reduction of MMP9 activity in TNF-alpha/IL1-beta-stimulated human Caco-2 cells treated 1 hr before stimulation by zymography; type: cell-based

| Activity [1] | IC50 [2] | Compound |
| --- | --- | --- |
| Active | 17.6 µM | COc1cc(/C=C/c2cc(C)[nH]n2)ccc1O |
| Active | 19.4 µM | COc1cc(/C=C/c2cc(/C=C/c3ccc(O)c(OC)c3)[nH]n2)ccc1O [CURCUMIN PYRAZOLE] |
| Active | 8 µM | COc1cc(/C=C/c2n[nH]c(C)c2C)ccc1O |
|  | 8.5 µM | COc1cc(/C=C/C(=O)CC(=O)/C=C/c2ccc(O)c(OC)c2)ccc1O [CURCUMIN] |
